Common to all, as to assay: NCI-60 cell line screen, 48 h
In assay [1] the test system is SW-620 colon.
The test system of assay [2] is HOP-92 NSCLC.
Assay [3] has as its system BT-549 breast.
Assay [4] relates to NCI-H23 lung.
In assay [5] the test system is SK-OV-3 ovarian.
Assay [6] has as its system MCF7 breast.
The test system of assay [7] is NCI/ADR-RES ovarian.
Assay [8] concerns SN12C renal.
For assay [9], the system named is SK-MEL-2 melanoma.
In assay [10] the test system is MDA-N.
Assay [11] relates to OVCAR-4 ovarian.
The subject of assay [12] is RPMI-8226 leukemia.
Assay [13] concerns IGROV1 ovarian.
For assay [14], the system named is UO-31 renal.
The subject of assay [15] is NCI-H522 lung.
Assay [16] concerns HCT-15 colon.
Assay [17] has as its system PC-3 prostate.
Assay [18] has as its system MDA-MB-435.
Assay [19] has as its system A498 renal.
The subject of assay [20] is KM12 colon.

Structures are written as SMILES.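 Method: 48-hour compound exposure of cells in 96-well plates, five concentrations, linear interpolation of endpoints. TGI marks complete inhibition of growth.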

Take `O=C(N1CCOCC1)C1(c2ccccc2)CCNCC1`: the TGI in assay [1], in assay [2], in [3], in [4], in assay [5] and in [6] was over 100 µM each time. Moreover, the TGI in assay [7], in [8], in [9], in assay [10], in assay [11] and in assay [12] was over 100 µM throughout. Moreover, the TGI in assay [13], in [14], in [15], in assay [16], in [17] and in assay [18] was over 100 µM in each case. The TGI in assay [19] and in assay [20] was over 100 µM in each case.
In the case of `COc1cc(C2SCC(=O)N2c2ccc(-c3ccc(-n4c(-c5ccccc5)nc5ccccc5c4=O)cc3)cc2)ccc1O` (stereo not given), the TGI is over 100 µM in assay [1]; 74.1 µM in [2]; over 100 µM in [3]; over 100 µM in assay [4]; over 100 µM in assay [5]; over 100 µM in assay [6]. Moreover, the TGI in assay [7], in assay [8], in assay [9], in assay [10], in assay [11] and in [12] was over 100 µM throughout. Also, the TGI in assay [13], in assay [14], in assay [15], in assay [16], in [17] and in [18] was over 100 µM throughout. The TGI in [19] and in assay [20] was over 100 µM throughout.
Take `C[C@@H]1CCC2[C@@H](C)[C@H](O[C@H]3O[C@@H]4O[C@@]5(C)CCC6[C@H](C)CCC([C@H]3C)[C@]64OO5)O[C@@H]3O[C@@]4(C)CCC1[C@@]23OO4` (stereo not given in full): the TGI was 16.5 µM in assay [1]; 11.4 µM in assay [2]; 14.7 µM in assay [3]; 13.3 µM in assay [4]; 41.7 µM in assay [5]; 25.3 µM in assay [6]. Moreover, the TGI in assay [7] is 15.5 µM; in assay [8], 15.6 µM; in assay [9] it was 9.69 µM; in assay [10] it was 19.2 µM; in [11], 16.4 µM; in [12], 1.46 µM. Besides, the TGI in [13] is 18.4 µM; in [14] it was 11 µM; in [15], 12.9 µM; in [16] it was 12.4 µM; in assay [17], 12.5 µM; in [18] it was 21.6 µM. In addition, the figures for the TGI in assay [19] and in assay [20] were 9.51 µM and 13.3 µM, respectively.
Turning to `C[C@H](CCC(=O)O[C@@H]1CC[C@@]2(C)C(CC[C@H]3[C@@H]4CC[C@H]([C@H](C)CCc5nc6ccccc6[nH]5)[C@@]4(C)CC[C@@H]32)C1)[C@H]1CC[C@H]2[C@@H]3CCC4C[C@H](O)CC[C@]4(C)[C@H]3CC[C@]12C` (stereo not given in full), the TGI in [1], in [2], in [3], in [4], in [5] and in assay [6] was over 100 µM throughout. Also, the TGI in assay [7], in [8], in assay [9], in assay [10], in [11] and in assay [12] was over 100 µM in each case. For the same compound, the TGI in assay [13], in assay [14], in assay [15], in [16], in assay [17] and in assay [18] was over 100 µM throughout. Further, the TGI in assay [19] and in assay [20] was over 100 µM in each case.
Regarding `COc1ccc(OC)c(C2CCCc3c2cnc2nc(N)nc(N)c32)c1` (stereo not given), the TGI was over 100 µM in assay [1]; over 100 µM in assay [2]; over 100 µM in [3]; over 100 µM in assay [4]; over 100 µM in [5]; 0.017 µM in [6]. In addition, the TGI in assay [7], in [8], in assay [9], in assay [10], in assay [11] and in assay [12] was over 100 µM in each case. Also, the TGI in [13], in assay [14], in [15], in assay [16], in assay [17] and in assay [18] was over 100 µM each time. For the same compound, the TGI in assay [19] and in assay [20] was over 100 µM each time.
For `CCc1ccc(CCC(=O)O)nc1`, the TGI in [1], in assay [2], in [3], in assay [4], in assay [5] and in assay [6] was over 100 µM in each case. Besides, the TGI in assay [7], in assay [8], in [9], in assay [10], in assay [11] and in assay [12] was over 100 µM throughout. Further, the TGI in assay [13], in assay [14], in assay [15], in assay [16], in assay [17] and in assay [18] was over 100 µM throughout. Besides, the TGI in assay [19] and in assay [20] was over 100 µM in each case.
For `CN(C)CCCc1cccnc1`, the TGI in [1], in [2], in [3], in assay [4], in assay [5] and in assay [6] was over 100 µM in each case. Further, the TGI in [7], in assay [8], in assay [9], in assay [10], in assay [11] and in assay [12] was over 100 µM throughout. The TGI in assay [13], in assay [14], in assay [15], in assay [16], in [17] and in [18] was over 100 µM throughout. For the same compound, the TGI in [19] and in assay [20] was over 100 µM each time.
In the case of `Cc1c(C)c(S(=O)(=O)N(CCCCCN)OCCCN)c(C)c2c1OC(C)(C)CC2`, the TGI in [1] is over 40.2 µM; in assay [2] it was 67.6 µM; in assay [3], 29.8 µM; in [4], 33 µM; in assay [5] it was 32 µM; in [6] it was over 100 µM. The TGI in assay [7] is 41.7 µM; in [8], over 100 µM; in assay [9], 11.2 µM; in [10] it was 31.1 µM; in assay [11] it was 13.3 µM; in assay [12], 18 µM. In addition, the TGI is 11 µM in [13]; 41.1 µM in [14]; 13.3 µM in assay [15]; 42.5 µM in assay [16]; 18 µM in [17]; 15.3 µM in [18]. For the same compound, the TGI in assay [19] is 40.9 µM; in assay [20] it was 8.93 µM.
For the compound `CC(=O)Nc1ccc2c3c(cc(O)c2c1)N(C(=O)CCCC(=O)Nc1ccc2c4c(cc(O)c2c1)N(C(=O)OC(C)(C)C)CC4CCl)CC3CCl` (stereo not given), the TGI was over 50 µM in [1]; over 15.1 µM in assay [2]; 3.75 µM in [3]; 16.7 µM in assay [4]; over 15.6 µM in [5]; over 16.3 µM in assay [6]. For the same compound, the TGI in assay [7] was over 50 µM; in assay [8] it was over 13.2 µM; in [9] it was 1.84 µM; in assay [10], 3.34 µM; in [11] it was 6.4 µM; in assay [12], over 34.8 µM. For the same compound, the TGI is over 50 µM in [13]; over 50 µM in assay [14]; 3.85 µM in [15]; over 50 µM in assay [16]; over 15.6 µM in assay [17]; 2 µM in assay [18]. The figures for the TGI in assay [19] and in assay [20] were 2.63 µM and 22.7 µM, respectively.
Take `O=C(O)CN1CCNCCN(CC(=O)O)CCNCC1`: the TGI in assay [1], in [2], in assay [3], in assay [4], in assay [5] and in assay [6] was over 100 µM throughout. The TGI was over 100 µM in assay [7]; over 100 µM in [8]; over 100 µM in assay [9]; over 31.6 µM in assay [10]; over 100 µM in assay [11]; over 100 µM in [12]. Further, the TGI in assay [13] is over 100 µM; in assay [14] it was over 100 µM; in [15] it was over 100 µM; in assay [16], over 74.7 µM; in assay [17], over 100 µM; in assay [18] it was over 100 µM. In addition, the TGI in assay [19] and in [20] was over 100 µM in each case.

(Values after PubChem BioAssay (NCI).)
